Experimental data: patent US20080009418A1, “Selective Inhibitors” (Alchemia LTD., priority 2004, published 2008)

Assays:
Human δ-opioid (DOP) = target: T1, Human δ-opioid (DOP) (Homo sapiens, UniProt P41143); experiment: Radioligand binding, human δ-opioid (DOP) membranes, FlashPlate, [3H]-Bremazocine; details: compound at 10 μM, [3H]-Bremazocine
T1 construct: purchased Perkin Elmer Biosignal
In short: (§1)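 Cloned human receptor membranes were coated onto FlashPlate wells and incubated with radioligand and compound (added from a 0.5 mM DMSO daughter plate) for 1 hour at room temperature in the dark. Scintillation counting gave percent inhibition, with DMSO defining total and reference ligand defining non-specific binding.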

Human Melanocortin (MC3) = target: T2, Human Melanocortin (MC3) (Homo sapiens, UniProt P41968); experiment: Radioligand binding, human melanocortin MC3 membranes, FlashPlate, [125I]-NDP-αMSH; details: compound at 10 μM, [125I]-NDP-αMSH
T2 construct: purchased Perkin Elmer Biosignal
T2 sequence (P41968 whole entry): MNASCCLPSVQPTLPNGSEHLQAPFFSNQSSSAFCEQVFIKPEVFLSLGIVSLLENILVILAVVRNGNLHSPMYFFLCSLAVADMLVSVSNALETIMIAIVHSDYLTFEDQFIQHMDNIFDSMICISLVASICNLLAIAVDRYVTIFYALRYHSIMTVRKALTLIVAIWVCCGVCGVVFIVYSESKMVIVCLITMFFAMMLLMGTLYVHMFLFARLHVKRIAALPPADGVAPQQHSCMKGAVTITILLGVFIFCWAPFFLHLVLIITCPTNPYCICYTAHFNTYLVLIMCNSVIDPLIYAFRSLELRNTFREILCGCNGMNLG
In short: as §1

Mouse urotensin (mUR2) = target: T3, Mouse urotensin (mUR2) (Mus musculus, UniProt Q8VIH9); experiment: Radioligand binding, mouse urotensin mUR2 membranes, FlashPlate, [125I]-Urotensin II; details: compound at 10 μM, [125I]-Urotensin II
T3 construct: purchased Perkin Elmer Biosignal
T3 sequence (Q8VIH9 1-385): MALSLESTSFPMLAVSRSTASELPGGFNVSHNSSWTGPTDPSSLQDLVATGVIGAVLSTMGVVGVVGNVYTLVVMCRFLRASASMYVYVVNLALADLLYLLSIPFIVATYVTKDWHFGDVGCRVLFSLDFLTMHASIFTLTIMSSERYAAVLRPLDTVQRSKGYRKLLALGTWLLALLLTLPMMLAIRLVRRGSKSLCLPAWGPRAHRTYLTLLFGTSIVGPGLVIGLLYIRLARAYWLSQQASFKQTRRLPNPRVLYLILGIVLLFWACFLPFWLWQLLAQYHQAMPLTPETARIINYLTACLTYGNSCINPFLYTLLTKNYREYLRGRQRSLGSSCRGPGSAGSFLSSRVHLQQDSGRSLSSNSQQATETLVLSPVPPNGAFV
In short: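 Cloned mouse urotensin (mUR2) receptor membranes from Perkin Elmer Biosignal were immobilized in FlashPlate microplates using a proprietary coating. Each well got 19.5 μl buffer, then 0.5 μl of DMSO, reference ligand, or compound. Adding 5 μl of [125I]-Urotensin II, diluted to 5× final concentration in binding buffer, started binding. Plates were sealed with TopSeal-A and incubated 1 hour at room temperature in the dark. Wells were counted for 30 seconds each on a TopCount after a 60-second delay, and percentage inhibition was calculated.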

[1] = target: T4, Human neuropeptide Y (NPY-Y1) (Homo sapiens, UniProt P25929); experiment: Radioligand binding, human neuropeptide Y NPY-Y1 membranes, FlashPlate, [125I]-PYY; details: compound at 10 μM, [125I]-PYY
T4 construct: purchased Perkin Elmer Biosignal
T4 sequence (P25929 1-384): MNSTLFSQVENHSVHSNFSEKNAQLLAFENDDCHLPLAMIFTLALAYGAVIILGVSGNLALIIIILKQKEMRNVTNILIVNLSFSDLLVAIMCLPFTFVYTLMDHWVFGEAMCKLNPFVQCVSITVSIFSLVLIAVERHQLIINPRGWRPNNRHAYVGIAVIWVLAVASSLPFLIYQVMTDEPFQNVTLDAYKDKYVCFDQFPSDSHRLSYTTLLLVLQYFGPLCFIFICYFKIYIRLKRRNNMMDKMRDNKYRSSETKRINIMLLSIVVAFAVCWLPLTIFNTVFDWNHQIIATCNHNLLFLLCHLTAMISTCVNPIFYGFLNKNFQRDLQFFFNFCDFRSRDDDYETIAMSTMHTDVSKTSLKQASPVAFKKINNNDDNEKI
In short: as §1

Human Melanocortin (MC4) = target: T5, Human Melanocortin (MC4) (Homo sapiens, UniProt P32245); experiment: Radioligand binding, human melanocortin MC4 membranes, FlashPlate, [125I]-NDP-αMSH; details: compound at 10 μM, [125I]-NDP-αMSH
T5 construct: purchased Perkin Elmer Biosignal
T5 sequence (P32245 whole entry): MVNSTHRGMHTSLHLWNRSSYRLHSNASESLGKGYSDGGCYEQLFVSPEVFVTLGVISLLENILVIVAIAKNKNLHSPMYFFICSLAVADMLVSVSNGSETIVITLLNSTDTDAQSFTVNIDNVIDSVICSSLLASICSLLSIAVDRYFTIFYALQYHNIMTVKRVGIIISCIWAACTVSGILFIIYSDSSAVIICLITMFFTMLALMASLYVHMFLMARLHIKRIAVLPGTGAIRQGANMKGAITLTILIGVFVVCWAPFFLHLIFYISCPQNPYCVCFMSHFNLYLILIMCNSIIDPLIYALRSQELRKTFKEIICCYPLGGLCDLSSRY
In short: as §1

Human neurokinin (NK1) = target: T6, Human neurokinin (NK1) (Homo sapiens, UniProt P25103); experiment: Radioligand binding, human neurokinin NK1 membranes, filtration, [125I]-Substance P; details: compound at 10 μM, [125I]-Substance P
T6 construct: purchased Perkin Elmer Biosignal
T6 sequence (P25103 whole entry): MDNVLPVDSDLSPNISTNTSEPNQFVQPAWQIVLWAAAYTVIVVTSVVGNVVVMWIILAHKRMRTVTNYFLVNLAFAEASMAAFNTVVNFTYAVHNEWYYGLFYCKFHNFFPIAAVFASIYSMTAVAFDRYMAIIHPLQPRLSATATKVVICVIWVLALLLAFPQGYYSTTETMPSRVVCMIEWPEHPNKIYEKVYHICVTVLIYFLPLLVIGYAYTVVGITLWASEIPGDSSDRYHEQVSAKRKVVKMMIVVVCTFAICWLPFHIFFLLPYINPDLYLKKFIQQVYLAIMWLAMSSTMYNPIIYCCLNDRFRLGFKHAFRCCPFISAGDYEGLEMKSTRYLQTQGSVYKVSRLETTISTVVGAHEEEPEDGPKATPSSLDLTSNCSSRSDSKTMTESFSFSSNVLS
In short: (§2)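 Filtration binding on cloned human receptor membranes (1 Unit/well), [125I]-Substance P for NK1 and [3H]-Diprenorphine for KOP, 1 h at room temperature. Filters PEI-presoaked, washed with cold 50 mM Tris-HCl pH 7.4, counted by scintillation; percent inhibition calculated, reference ligand defining non-specific binding.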

[2] = target: T7, Human melanin-concentrating hormone (MCH1) (Homo sapiens, UniProt Q99705); experiment: Radioligand binding, human melanin-concentrating hormone MCH1 membranes, FlashPlate, [125I]-S36057; details: compound at 10 μM; for A6: inhibition of radioligand binding, human melanin-concentrating hormone (MCH1): [125I]-S36057
T7 construct: purchased Perkin Elmer Biosignal
T7 sequence (Q99705 whole entry): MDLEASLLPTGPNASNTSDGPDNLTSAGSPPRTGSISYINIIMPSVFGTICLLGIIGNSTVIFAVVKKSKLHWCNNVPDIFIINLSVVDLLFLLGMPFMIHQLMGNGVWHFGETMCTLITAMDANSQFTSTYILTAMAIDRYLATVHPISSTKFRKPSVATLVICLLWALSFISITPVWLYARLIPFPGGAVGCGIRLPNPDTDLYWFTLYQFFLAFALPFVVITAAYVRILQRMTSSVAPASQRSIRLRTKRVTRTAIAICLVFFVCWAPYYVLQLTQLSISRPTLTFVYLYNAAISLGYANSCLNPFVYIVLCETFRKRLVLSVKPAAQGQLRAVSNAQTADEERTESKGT
In short: as §1

Human opioid (ORL1) = target: T8, Human opioid (ORL1) (Homo sapiens, UniProt P41146); experiment: Radioligand binding, human opioid ORL1 membranes, FlashPlate, [125I]-Nociceptin; details: compound at 10 μM, [125I]-Nociceptin
T8 construct: purchased Perkin Elmer Biosignal
T8 sequence (P41146 whole entry): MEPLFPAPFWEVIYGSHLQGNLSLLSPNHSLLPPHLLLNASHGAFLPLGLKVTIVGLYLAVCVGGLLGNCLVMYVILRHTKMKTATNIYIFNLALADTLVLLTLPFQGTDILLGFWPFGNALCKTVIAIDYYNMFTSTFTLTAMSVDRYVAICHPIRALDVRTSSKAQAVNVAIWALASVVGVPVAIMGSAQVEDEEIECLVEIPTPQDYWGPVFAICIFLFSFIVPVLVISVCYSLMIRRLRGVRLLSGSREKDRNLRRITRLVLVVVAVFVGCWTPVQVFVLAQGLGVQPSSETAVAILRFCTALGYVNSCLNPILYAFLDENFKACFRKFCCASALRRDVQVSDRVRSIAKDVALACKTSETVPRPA
In short: as §1

Human κ-Opioid (KOP) = target: T9, Human κ-Opioid (KOP) (Homo sapiens, UniProt P41145); experiment: Radioligand binding, human κ-opioid (KOP) membranes, filtration, [3H]-Diprenorphine; details: compound at 10 μM, [3H]-Diprenorphine
T9 construct: purchased Perkin Elmer Biosignal
T9 sequence (P41145 whole entry): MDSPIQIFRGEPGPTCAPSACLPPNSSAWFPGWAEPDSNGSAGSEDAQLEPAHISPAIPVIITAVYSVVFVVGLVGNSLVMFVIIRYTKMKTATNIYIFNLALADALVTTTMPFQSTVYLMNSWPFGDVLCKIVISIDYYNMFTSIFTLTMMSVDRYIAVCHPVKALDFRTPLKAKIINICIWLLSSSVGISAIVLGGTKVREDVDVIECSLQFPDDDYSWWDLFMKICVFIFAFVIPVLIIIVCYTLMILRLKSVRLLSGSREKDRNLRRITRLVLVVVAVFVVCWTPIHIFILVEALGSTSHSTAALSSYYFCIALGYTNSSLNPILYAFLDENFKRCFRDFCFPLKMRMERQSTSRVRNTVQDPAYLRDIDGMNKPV
In short: as §2

Human melanocortin (MC5) = target: T10, Human melanocortin (MC5) (Homo sapiens, UniProt P33032); experiment: Radioligand binding, human melanocortin MC5 membranes, FlashPlate, [125I]-NDP-αMSH; details: compound at 10 μM, [125I]-NDP-αMSH
T10 construct: purchased Perkin Elmer Biosignal
T10 sequence (P33032 whole entry): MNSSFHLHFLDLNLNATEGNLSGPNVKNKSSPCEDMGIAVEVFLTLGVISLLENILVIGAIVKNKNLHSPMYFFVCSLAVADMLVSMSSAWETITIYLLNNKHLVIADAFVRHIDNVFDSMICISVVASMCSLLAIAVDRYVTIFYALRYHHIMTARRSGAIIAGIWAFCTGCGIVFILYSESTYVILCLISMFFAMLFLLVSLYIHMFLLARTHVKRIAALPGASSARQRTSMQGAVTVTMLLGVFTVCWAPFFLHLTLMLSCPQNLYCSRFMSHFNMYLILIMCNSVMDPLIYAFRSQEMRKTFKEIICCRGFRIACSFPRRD
In short: as §1

Human μ-opioid (MOP) = target: T11, Human μ-opioid (MOP) (Homo sapiens, UniProt P35372); experiment: Radioligand binding, human μ-opioid (MOP) membranes, FlashPlate, [3H]-Naloxone; details: compound at 10 μM, [3H]-Naloxone
T11 construct: purchased Perkin Elmer Biosignal
T11 sequence (P35372 whole entry): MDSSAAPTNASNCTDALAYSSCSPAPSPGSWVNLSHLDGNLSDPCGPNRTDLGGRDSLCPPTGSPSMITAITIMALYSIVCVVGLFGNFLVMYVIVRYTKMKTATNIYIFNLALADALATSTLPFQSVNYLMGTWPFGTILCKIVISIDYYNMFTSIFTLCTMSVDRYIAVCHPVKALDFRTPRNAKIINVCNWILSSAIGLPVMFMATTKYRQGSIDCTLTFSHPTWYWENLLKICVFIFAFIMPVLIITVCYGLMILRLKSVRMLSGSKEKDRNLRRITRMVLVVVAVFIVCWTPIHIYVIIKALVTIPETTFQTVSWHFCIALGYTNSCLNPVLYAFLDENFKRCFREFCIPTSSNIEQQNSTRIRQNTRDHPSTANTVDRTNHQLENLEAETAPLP
In short: as §1

T1 sequence (P41143 whole entry): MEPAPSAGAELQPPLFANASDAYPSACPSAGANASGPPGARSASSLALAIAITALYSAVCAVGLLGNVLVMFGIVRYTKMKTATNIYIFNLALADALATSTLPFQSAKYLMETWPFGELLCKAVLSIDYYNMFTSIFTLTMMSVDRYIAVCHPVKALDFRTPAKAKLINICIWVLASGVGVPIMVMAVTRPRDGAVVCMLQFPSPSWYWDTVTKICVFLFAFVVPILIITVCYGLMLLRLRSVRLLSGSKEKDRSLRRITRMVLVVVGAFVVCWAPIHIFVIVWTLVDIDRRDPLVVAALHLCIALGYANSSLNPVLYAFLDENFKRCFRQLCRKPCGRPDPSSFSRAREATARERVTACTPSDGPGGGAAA

Compound | A1: inhibition of radioligand binding, human δ-opioid (DOP) (Human δ-opioid (DOP)) | A3: inhibition of radioligand binding, human melanocortin (MC3) (Human Melanocortin (MC3)) | A11: inhibition of radioligand binding, mouse urotensin (mUR2) (Mouse urotensin (mUR2)) | A9: inhibition of radioligand binding, human neuropeptide Y (NPY-Y1) [1] | A4: inhibition of radioligand binding, human melanocortin (MC4) (Human Melanocortin (MC4)) | A8: inhibition of radioligand binding, human neurokinin (NK1) (Human neurokinin (NK1)) | A6: inhibition of radioligand binding, human melanin-concentrating hormone (MCH1) [2] | A10: inhibition of radioligand binding, human opioid (ORL1) (Human opioid (ORL1)) | A2: inhibition of radioligand binding, human κ-opioid (KOP) (Human κ-Opioid (KOP)) | A5: inhibition of radioligand binding, human melanocortin (MC5) (Human melanocortin (MC5)) | A7: inhibition of radioligand binding, human μ-opioid (MOP) (Human μ-opioid (MOP)) | other results
COCC1OC(OCc2ccc3ccccc3c2)C(NC(=O)CCCN)C(OCc2ccc(-c3ccccc3)cc2)C1O (stereo not drawn) [compound 245] | – | – | – | – | – | – | – | – | – | – | – | A1: inhibition of radioligand binding (Human δ-opioid (DOP); FlashPlate): − (“−” indicates less than 50% inhibition at 10 μM); A3: inhibition of radioligand binding (Human Melanocortin (MC3); FlashPlate): − (“−” indicates less than 50% inhibition at 10 μM); A11: inhibition of radioligand binding (Mouse urotensin (mUR2); FlashPlate): − (“−” indicates less than 50% inhibition at 10 μM); A9: inhibition of radioligand binding ([1]; FlashPlate): − (“−” indicates less than 50% inhibition at 10 μM); A4: inhibition of radioligand binding (Human Melanocortin (MC4); FlashPlate): − (“−” indicates less than 50% inhibition at 10 μM); A8: inhibition of radioligand binding (Human neurokinin (NK1); filtration): + (“+” indicates greater than 50% inhibition at 10 μM); A6: inhibition of radioligand binding ([2]; [125I]-S36057, FlashPlate): − (“−” indicates less than 50% inhibition at 10 μM); A10: inhibition of radioligand binding (Human opioid (ORL1); FlashPlate): − (“−” indicates less than 50% inhibition at 10 μM); A2: inhibition of radioligand binding (Human κ-Opioid (KOP); filtration): − (“−” indicates less than 50% inhibition at 10 μM); A5: inhibition of radioligand binding (Human melanocortin (MC5); FlashPlate): − (“−” indicates less than 50% inhibition at 10 μM); A7: inhibition of radioligand binding (Human μ-opioid (MOP); FlashPlate): − (“−” indicates less than 50% inhibition at 10 μM)
CSC1O[C@H](COCc2ccc(-c3ccccc3)cc2)[C@@H](O)[C@@H](OCc2ccc(-c3ccccc3)cc2)[C@H]1NC(=O)CCNC(=N)N (stereo partly drawn) [compound 293] | − (“−” indicates less than 50% inhibition at 10 μM) | − (“−” indicates less than 50% inhibition at 10 μM) | − (“−” indicates less than 50% inhibition at 10 μM) | − (“−” indicates less than 50% inhibition at 10 μM) | − (“−” indicates less than 50% inhibition at 10 μM) | + (“+” indicates greater than 50% inhibition at 10 μM) | − (“−” indicates less than 50% inhibition at 10 μM) | − (“−” indicates less than 50% inhibition at 10 μM) | − (“−” indicates less than 50% inhibition at 10 μM) | − (“−” indicates less than 50% inhibition at 10 μM) | − (“−” indicates less than 50% inhibition at 10 μM) | –
N=C(N)NCCCC(=O)NC1COC(COCc2ccc3ccccc3c2)C(O)C1OCc1ccc(Cl)cc1 (stereo not drawn) [compound 541] | − (“−” indicates less than 50% inhibition at 10 μM) | − (“−” indicates less than 50% inhibition at 10 μM) | − (“−” indicates less than 50% inhibition at 10 μM) | − (“−” indicates less than 50% inhibition at 10 μM) | − (“−” indicates less than 50% inhibition at 10 μM) | + (“+” indicates greater than 50% inhibition at 10 μM) | − (“−” indicates less than 50% inhibition at 10 μM) | − (“−” indicates less than 50% inhibition at 10 μM) | − (“−” indicates less than 50% inhibition at 10 μM) | − (“−” indicates less than 50% inhibition at 10 μM) | − (“−” indicates less than 50% inhibition at 10 μM) | –
